Patent US9187491B2, “Gambogenic acid derivatives, preparation method and application thereof” (Ninth People's Hospital, School Medicine Shanghai Jiao Tong …, priority 2012, dated 2015)
Like-named read-outs stand apart in the source and are kept apart here.

Tests used:
[1] = tested on: Human breast cancer cells MCF-7; assay: growth inhibition of tumor cell MCF-7 (MTT colorimetric method); type: cell-based; conditions: for efficacy: MCF-7, assessment of results; for inhibition at 100 µM / inhibition at 10 µM / inhibition at 1 µM / inhibition at 0.1 µM / inhibition at 0.01 µM: Homo sapiens, read-out: growth inhibition rate
Description: (§1) The compounds synthesized from the present invention were studied by sulforhodamine B protein staining (sulfothodalnine B, SRB) and miceroculture tetrazolinetetrozohuln (MTT) colorimetric method respectively for in vitro anti-tumor activity (Cancer Res., 1988, 48 (3): 589).
(§2) The concentration gradient of the test compounds of the present invention is 10^−4M, 10^−5M, 10^−6M, 10^−7M, 10^−8M, and the test compounds are 6-methoxy methyl ester gambogenic acid, ethyl ester gambogenic acid, 6-ethoxy ethyl ester gambogenic acid, 6-acyl gambogenic acid, piperidine gambogenic acid, diethylamide gambogenic acyl, morpholine gambogenic acid, and 12-hydroxy gambogenic acid, and 8,9-epoxy gambogenic acid. The test compounds and positive control gambogenic acid were diluted with dimethyl sulfoxide. Inhibition rate(%)=[(control group OD value−administered group OD value)/control group OD value]×100%
Human breast cancer cells MCF-7 were cultured in DMEM containing 10% FBS, the cell with long-growth phase was formed into suspension and cultured in 96-well plates. The test compounds as experimental group with different concentrations were added into each well of the 96-well plates. Blank control group received an equal volume containing the highest concentration of solvent (ie, 10^−4M dimethyl sulfoxide) in DMEM. After incubation at 37° C. under 5% carbon dioxide conditions for 72 hours, each well was added with MTT to 1 mg/ml final concentration for incubation for 4 hours. The supernatant solution in each well was aspirated and added with 200 μl DMSO to dissolve crystals, and then OD values were measured at 490 nm by an automatic plate reader spectrophotometer. A tumor cell group without drugs is a blank control group.

[2] = tested on: Human oral squamous cells carcinoma Cal27; assay: growth inhibition of tumor cell Cal27 (SRB staining); type: cell-based; conditions: for efficacy: Cal27, assessment of results; for inhibition at 100 µM / inhibition at 10 µM / inhibition at 1 µM / inhibition at 0.1 µM / inhibition at 0.01 µM: Homo sapiens, read-out: growth inhibition rate
Description: as §1, §2
Human oral squamous cells carcinoma Cal27 were cultured in DMEM containing 10% fetal bovine serum (FBS), the cells with long-growth phase were forming suspension and culturing in 96-well plates. 10 μl test compounds of different concentrations as experimental group were added into each well of the 96-well plates. Blank control group received an equal volume containing the highest concentration of solvent (ie, 10^−4M dimethyl sulfoxide) in DMEM. After incubation at 37° C. under 5% carbon dioxide conditions for 72 hours, the cells were fixed with trichloroacetic acid, and each well was added with 100 μl SRB solution, unbound SRB was washed away, and then OD values were measured at 550 nm by an automatic plate reader spectrophotometer. A tumor cell group without drugs is a blank control group.

mouse leukemia L1210 = conditions: compared with garcinia acid; cited from earlier work
[3] = MCF7, MCF-7, 10^−4M, 72 hours, MTT
[4] = MCF7, MCF-7, 10^−5M, 72 hours, MTT
[5] = MCF7, MCF-7, 10^−6M, 72 hours, MTT
[6] = MCF7, MCF-7, 10^−7M, 72 hours, MTT
[7] = MCF7, MCF-7, 10^−8M, 72 hours, MTT
[8] = CAL-27, Cal27, 10^−4M, 72 hours, SRB
[9] = CAL-27, Cal27, 10^−5M, 72 hours, SRB
[10] = CAL-27, Cal27, 10^−6M, 72 hours, SRB
[11] = CAL-27, Cal27, 10^−7M, 72 hours, SRB
[12] = CAL-27, Cal27, 10^−8M, 72 hours, SRB

Compound	growth inhibition rate ([1]; MCF-7, 10^−4M, 72 hours, MTT) [%]	growth inhibition rate ([1]; MCF-7, 10^−5M, 72 hours, MTT) [%]	growth inhibition rate ([1]; MCF-7, 10^−6M, 72 hours, MTT) [%]	growth inhibition rate ([1]; MCF-7, 10^−7M, 72 hours, MTT) [%]	growth inhibition rate ([1]; MCF-7, 10^−8M, 72 hours, MTT) [%]	efficacy [1]	growth inhibition rate ([2]; Cal27, 10^−4M, 72 hours, SRB) [%]	growth inhibition rate ([2]; Cal27, 10^−5M, 72 hours, SRB) [%]	growth inhibition rate ([2]; Cal27, 10^−6M, 72 hours, SRB) [%]	growth inhibition rate ([2]; Cal27, 10^−7M, 72 hours, SRB) [%]	growth inhibition rate ([2]; Cal27, 10^−8M, 72 hours, SRB) [%]	efficacy [2]	other results
6-acyl gambogenic acid	100	100	83	0	0	potent (Potent: 10^−6M inhibition rate≧75% or 10^−7M inhibition rate>50%)	100	100	96	0	0	potent (Potent: 10^−6M inhibition rate≧75% or 10^−7M inhibition rate>50%)	–
CCOC(=O)/C(C)=C\CC12OC(C)(C)C3CC(C=C4C(=O)c5c(OCC)c(C/C=C(\C)CCC=C(C)C)c(O)c(CC=C(C)C)c5OC431)C2=O (stereo not shown) [6-ethoxy ethyl ester gambogenic acid, 6-ethoxyl gambogenic acid ethyl ester]	100	100	86	0	0	potent (Potent: 10^−6M inhibition rate≧75% or 10^−7M inhibition rate>50%)	100	100	94	0	0	potent (Potent: 10^−6M inhibition rate≧75% or 10^−7M inhibition rate>50%)	–
COC(=O)/C(C)=C\CC12OC(C)(C)C3CC(C=C4C(=O)c5c(OC)c(C/C=C(\C)CCC=C(C)C)c(O)c(CC=C(C)C)c5OC431)C2=O (stereo not shown) [6-methoxy methyl ester gambogenic acid]	100	100	80	0	0	potent (Potent: 10^−6M inhibition rate≧75% or 10^−7M inhibition rate>50%)	100	100	100	0	0	potent (Potent: 10^−6M inhibition rate≧75% or 10^−7M inhibition rate>50%)	–
CC(C)=CCC/C(C)=C/Cc1c(O)c(CC=C(C)C)c2c(c1O)C(=O)C13OC1C1CC4C(C)(C)OC(C/C=C(\C)C(=O)O)(CC1=O)C43O2 (stereo not shown) [8,9-epoxy gambogenic acid]	–	–	–	–	–	potent (Potent: 10^−6M inhibition rate≧75% or 10^−7M inhibition rate>50%)	–	–	–	–	–	potent (Potent: 10^−6M inhibition rate≧75% or 10^−7M inhibition rate>50%)	inhibition at 100 µM [1, 3]: 100%; inhibition at 10 µM [1, 4]: 100%; inhibition at 1 µM [1, 5]: 80%; inhibition at 0.1 µM [1, 6]: 0%; inhibition at 0.01 µM [1, 7]: 0%; inhibition at 100 µM [2, 8]: 100%; inhibition at 10 µM [2, 9]: 100%; inhibition at 1 µM [2, 10]: 100%; inhibition at 0.1 µM [2, 11]: 0%; inhibition at 0.01 µM [2, 12]: 0%
CC(C)=CCC/C(C)=C/Cc1c(O)c(CC=C(C)C)c2c(c1O)C(=O)C1=CC3CC4C(C)(C)OC(C/C=C(\C)C(=O)O)(CC3O)C14O2 (stereo not shown) [12-hydroxy gambogenic acid]	–	–	–	–	–	potent (Potent: 10^−6M inhibition rate≧75% or 10^−7M inhibition rate>50%)	–	–	–	–	–	potent (Potent: 10^−6M inhibition rate≧75% or 10^−7M inhibition rate>50%)	inhibition at 100 µM [1, 3]: 100%; inhibition at 10 µM [1, 4]: 100%; inhibition at 1 µM [1, 5]: 82%; inhibition at 0.1 µM [1, 6]: 0%; inhibition at 0.01 µM [1, 7]: 0%; inhibition at 100 µM [2, 8]: 100%; inhibition at 10 µM [2, 9]: 100%; inhibition at 1 µM [2, 10]: 100%; inhibition at 0.1 µM [2, 11]: 0%; inhibition at 0.01 µM [2, 12]: 0%
CCN(CC)C(=O)/C(C)=C\CC12OC(C)(C)C3CC(C=C4C(=O)c5c(O)c(C/C=C(\C)CCC=C(C)C)c(O)c(CC=C(C)C)c5OC431)C2=O (stereo not shown) [diethylamide gambogenic acyl]	100	100	84	0	0	potent (Potent: 10^−6M inhibition rate≧75% or 10^−7M inhibition rate>50%)	100	100	100	23	0	potent (Potent: 10^−6M inhibition rate≧75% or 10^−7M inhibition rate>50%)	–
CCOC(=O)/C(C)=C\CC12OC(C)(C)C3CC(C=C4C(=O)c5c(O)c(C/C=C(\C)CCC=C(C)C)c(O)c(CC=C(C)C)c5OC431)C2=O (stereo not shown) [ethyl ester gambogenic acid]	100	100	96	0	0	potent (Potent: 10^−6M inhibition rate≧75% or 10^−7M inhibition rate>50%)	100	100	98	0	0	potent (Potent: 10^−6M inhibition rate≧75% or 10^−7M inhibition rate>50%)	–
CC(C)=CCC/C(C)=C/Cc1c(O)c(CC=C(C)C)c2c(c1O)C(=O)C1=CC3CC4C(C)(C)OC(C/C=C(/C)C(=O)O)(C3=O)C14O2 (stereo not shown) [gambogenic acid, Gambogenic acid]	–	–	–	–	–	invalid (Invalid: 10^−5M inhibition rate<85%)	–	–	–	–	–	invalid (Invalid: 10^−5M inhibition rate<85%)	highest survival rate extended, relative to garcinia acid (mouse leukemia L1210): up to 2.45 times; inhibition at 0.01 µM ([1]; MCF7, 72 h): 0%; inhibition at 0.1 µM ([1]; MCF7, 72 h): 0%; inhibition at 1 µM ([1]; MCF7, 72 h): 0%; inhibition at 10 µM ([1]; MCF7, 72 h): 100%; inhibition at 100 µM ([1]; MCF7, 72 h): 100%; inhibition at 0.01 µM ([2]; CAL-27, 72 h): 0%; inhibition at 0.1 µM ([2]; CAL-27, 72 h): 0%; inhibition at 1 µM ([2]; CAL-27, 72 h): 5%; inhibition at 10 µM ([2]; CAL-27, 72 h): 100%; inhibition at 100 µM ([2]; CAL-27, 72 h): 100%
CC(C)=CCC/C(C)=C/Cc1c(O)c(CC=C(C)C)c2c(c1O)C(=O)C1=CC3CC4C(C)(C)OC(C/C=C(/C)C(=O)N5CCOCC5)(C3=O)C14O2 (stereo not shown) [morpholine gambogenic acid]	100	100	78	14	0	potent (Potent: 10^−6M inhibition rate≧75% or 10^−7M inhibition rate>50%)	100	100	100	14	0	potent (Potent: 10^−6M inhibition rate≧75% or 10^−7M inhibition rate>50%)	–
CC(C)=CCC/C(C)=C/Cc1c(O)c(CC=C(C)C)c2c(c1O)C(=O)C1=CC3CC4C(C)(C)OC(C/C=C(/C)C(=O)N5CCCCC5)(C3=O)C14O2 (stereo not shown) [piperidine gambogenic acid]	100	100	67	0	0	invalid (Invalid: 10^−5M inhibition rate<85%)	100	100	70	0	0	invalid (Invalid: 10^−5M inhibition rate<85%)	–
